Laboratory results taken from patent publication US20090036407A1, “FLEA CONTROL METHOD” (priority 2007, published 2009).

System: eggs of C. felis
Experiment: Eggs and larvae of C. felis, egg to adult development assay (Test A, Test Example 1)
Type: in vivo
Conditions: 30 eggs x 3 replicates, 28 days
Method: Eggs and Larvae of C. felis—Egg to Adult Development Assay A larval support media was prepared consisting of 1 g dried bovine blood, 1 g dog biscuit and 5 g of fine sand. Two grams of the larval support media were placed into a 30 mL container for treatment with the test compound and drying. The test compound (3-bromo-N-[4-chloro-2-methyl-6-(methylcarbamoyl)phenyl]-1-(3-chloropyridin-2-yl)-1H-pyrazole-5-carboxamide) was prepared in acetone and serially diluted prior to testing. The concentrations used were as follows: 1 ug/uL, 0.5, 0.25, 0.125, 0.0625 ug/uL. 30 eggs of C. felis were placed into the culturing medium. Each concentration was replicated 3 times giving a total of 90 eggs per dose level. The untreated control was treated with acetone only. The containers were placed into a temperature and humidity controlled room and maintained for 28 days. After the incubation period had elapsed the containers were placed into a freezer for 1 hour. The adults and pupae were counted and % of adults and pupae that developed at each dose level was calculated. The activity was compared to Methoprene.

[1] = concentration 0.0625 (ug/uL) in treated larval support media
[2] = concentration 0.125 (ug/uL) in treated larval support media
[3] = concentration 0.25 (ug/uL) in treated larval support media
[4] = concentration 0.5 (ug/uL) in treated larval support media
[5] = concentration 1.0 (ug/uL) in treated larval support media

Row | SMILES | % eggs developed into adults [1] [%] | % eggs developed into adults [2] [%] | % eggs developed into adults [3] [%] | % eggs developed into adults [4] [%] | % eggs developed into adults [5] [%]
1 | COC(C)(C)CCC[C@H](C)C/C=C/C(C)=C/C(=O)OC(C)C (racemic) [Methoprene] | 14.4 | 3.3 | 1.1 | 0.0 | 0.0
2 | CNC(=O)c1cc(Cl)cc(C)c1NC(=O)c1cc(Br)nn1-c1ncccc1Cl [Test Compound, 3-bromo-N-[4-chloro-2-methyl-6-(methylcarbamoyl)phenyl]-1-(3-chloropyridin-2-yl)-1H-pyrazole-5-carboxamide] | 18.9 | 0.0 | 0.0 | 0.0 | 0.0
